US20090221653A1, “7-(2-amino-1-hydroxy-ethyl)-4-hydroxybenzothiazol-2(3H)-one-derivatives as beta2 adrenoreceptor agonists” (AstraZeneca AB, priority 2005, published 2009)
Structures can show the parent of a compound that is named as a salt. Where two headings read alike, the source gives them in different places.

Experiments:
Adrenergic β2 = target: T1, Adrenergic β2 (Homo sapiens, UniProt P07550); assay: Alternative Adrenergic β2 Mediated cAMP Production in H292 cells (AlphaScreen cAMP detection); type: cell-based; conditions: for EC50: cAMP, test compounds incubated 60 minutes, 300 μM rolipram, read-out: β2 pEC50 (converted); for β2 Int Act: fraction relative to the maximum activity determined for formoterol, 60 minutes incubation
T1 construct: endogenous in cells; host or cells: H292 cells
Method: H292 cells were grown in 225 cm2 flasks incubator at 37° C., 5% CO2 in RPMI medium containing, 10% (v/v) FBS (foetal bovine serum) and 2 mM L-glutamine.
Adherent H292 cells were removed from tissue culture flasks by treatment with Accutase™ cell detachment solution for 15 minutes. Flasks were incubated for 15 minutes in a humidified incubator at 37° C., 5% CO2. Detached cells were re-suspended in RPMI media (containing 10% (v/v) FBS and 2 mM L-glutamine) at 0.05×10^6 cells per mL. 5000 cells in 100 μL were added to each well of a tissue-culture-treated 96-well plate and the cells incubated overnight in a humidified incubator at 37° C., 5% CO2. The culture media was removed and cells were washed twice with 100 μL assay buffer and replaced with 50 μL assay buffer (HBSS solution containing 10 mM HEPES pH7.4 and 5 mM glucose). […] Cells were incubated with rolipram for 10 minutes after which time test compounds were added and the cells were incubated for 60 minutes at room temperature. […] The reaction was stopped by removing supernatants, washing once with 100 μL assay buffer and replacing with 50 μL lysis buffer. The cell monolayer was frozen at −80° C. for 30 minutes (or overnight).
The concentration of cAMP (cyclic adenosine monophosphate) in the cell lysate was determined using AlphaScreen™ methodology. The frozen cell plate was thawed for 20 minutes on a plate shaker then 10 μL of the cell lysate was transferred to a 96-well white plate. 40 μL of mixed AlphaScreen™ detection beads pre-incubated with biotinylated cAMP, was added to each well and the plate incubated at room temperature for 10 hours in the dark. The AlphaScreen™ signal was measured using an EnVision spectrophotometer (Perkin-Elmer Inc.) with the recommended manufacturer's settings. cAMP concentrations were determined by reference to a calibration curve determined in the same experiment using standard cAMP concentrations. Concentration response curves for agonists were constructed and data was fitted to a four parameter logistic equation to determine both the pEC50 and Intrinsic Activity.

[1] = target: T2, recombinant human Dopamine Subtype D2s receptors (Homo sapiens, UniProt P14416); assay: Dopamine D2 selectivity assay, inhibition of [3H]-spiperone binding; conditions: membranes, [3H]-spiperone 0.16 nM; read-out: D2 bind pIC50 (converted)
T2 construct: purchased Perkin Elmer
Method: (§1) Membranes containing recombinant human Dopamine Subtype D2s receptors were obtained from Perkin Elmer. These were diluted in Assay Buffer (50 nm HEPES, 1 mM EDTA, 120 mM NaCl, 0.1% gelatin, pH 7.4) to provide a final concentration of membranes that gave a clear window between maximum and minimum specific binding.
Assays were performed in U-bottomed 96-well polypropylene plates. […] For each assay plate 8 replicates were obtained for [^3H]-spiperone binding in the presence of 30 μL vehicle (10% (v/v) DMSO in Assay Buffer; defining maximum binding) or 30 μL Haloperidol (10 μM final concentration; defining non-specific binding (NSB)). Membranes were then added to achieve a final volume of 300 μL. The plates were incubated for 2 hours at room temperature and then filtered onto PEI coated GF/B filter plates, pre-soaked for 1 hour in Assay Buffer, using a 96-well plate Tomtec cell harvester. Five washes with 250 μL wash buffer (50 mM HEPES, 1 mM EDTA, 120 mM NaCl, pH 7.4) were performed at 4° C. to remove unbound radioactivity. The plates were dried then sealed from underneath using Packard plate sealers and MicroScint-O (50 μL) was added to each well. The plates were sealed (TopSeal A) and filter-bound radioactivity was measured with a scintillation counter (TopCount, Packard BioScience) using a 3-minute counting protocol. Total specific binding (B0) was determined by subtracting the mean NSB from the mean maximum binding. NSB values were also subtracted from values from all other wells.

[2] = target: T3, recombinant human α1D receptor (Homo sapiens, UniProt P25100); assay: Adrenergic α1D selectivity assay, inhibition of [3H]-prazosin binding; conditions: HEK293 membranes, [3H]-prazosin 0.3 nM; read-out: α1 bind pIC50 (converted)
T3 construct: expressed in transfected cells; host or cells: HEK293
T3 sequence (P25100 1-572): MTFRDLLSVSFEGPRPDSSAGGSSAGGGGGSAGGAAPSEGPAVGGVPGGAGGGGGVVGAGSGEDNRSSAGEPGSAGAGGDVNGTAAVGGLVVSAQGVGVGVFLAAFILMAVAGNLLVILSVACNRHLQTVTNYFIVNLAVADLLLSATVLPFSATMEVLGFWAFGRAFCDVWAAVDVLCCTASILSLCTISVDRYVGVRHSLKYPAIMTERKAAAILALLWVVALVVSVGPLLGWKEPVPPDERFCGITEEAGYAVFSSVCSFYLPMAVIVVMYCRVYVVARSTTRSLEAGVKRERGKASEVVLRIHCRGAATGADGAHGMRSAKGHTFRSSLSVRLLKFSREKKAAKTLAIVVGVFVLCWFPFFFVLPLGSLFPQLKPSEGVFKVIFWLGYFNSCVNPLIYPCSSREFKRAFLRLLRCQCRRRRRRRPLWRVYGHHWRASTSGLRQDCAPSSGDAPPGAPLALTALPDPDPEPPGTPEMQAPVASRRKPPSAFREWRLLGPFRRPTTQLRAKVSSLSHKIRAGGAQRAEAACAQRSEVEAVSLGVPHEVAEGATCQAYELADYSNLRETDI
Method: Membranes were prepared from human embryonic kidney 293 (HEK293) cells expressing recombinant human α1D receptor. These were diluted in Assay Buffer (50 mM HEPES, 1 mM EDTA, 0.1% gelatin, pH 7.4) to provide a final concentration of membranes that gave a clear window between maximum and minimum specific binding.
(§2) Assays were performed in U-bottomed 96-well polypropylene plates. 10 μL [^3H]-prazosin (0.3 nM final concentration) and 10 μL of test compound (10× final concentration) were added to each test well. For each assay plate 8 replicates were obtained for [^3H]-prazosin binding in the presence of 10 μL vehicle (10% (v/v) DMSO in Assay Buffer; defining maximum binding) or 10 μL BMY7378 (10 μM final concentration; defining non-specific binding (NSB)). Membranes were then added to achieve a final volume of 100 μL. The plates were incubated for 2 hours at room temperature and then filtered onto PEI coated GF/B filter plates, pre-soaked for 1 hour in Assay Buffer, using a 96-well plate Tomtec cell harvester. Five washes with 250 μL wash buffer (50 mM HEPES, 1 mM EDTA, pH 7.4) were performed at 4° C. to remove unbound radioactivity. The plates were dried then sealed from underneath using Packard plate sealers and MicroScint-O (50 μL) was added to each well. The plates were sealed (TopSeal A) and filter-bound radioactivity was measured with a scintillation counter (TopCount, Packard BioScience) using a 3-minute counting protocol.
(§3) Total specific binding (B0) was determined by subtracting the mean NSB from the mean maximum binding. NSB values were also subtracted from values from all other wells.

[3] = target: T4, recombinant human adrenergic beta 1 receptors (Homo sapiens, UniProt P08588); assay: Adrenergic β1 selectivity assay, inhibition of [125I]-Iodocyanopindolol binding
T4 construct: purchased Euroscreen
Method: as §1, with “adrenergic beta 1” for “Dopamine Subtype D2s”, “Euroscreen.” for “Perkin Elmer.”, “mM” for “nm”
as §2, with “10 μL [^3H]-prazosin (0.3 nM final concentration) and 10 μL of test compound (10× final concentration) were added to each test well. For each assay plate 8 replicates were obtained for [^3H]-prazosin binding in the presence of 10 μL vehicle (10% (v/v) DMSO in Assay Buffer; defining maximum binding) or 10 μL BMY7378 (10 μM final concentration; defining non-specific binding (NSB)).” left out, “EDTA, 120 mM NaCl,” for “EDTA,”
as §3

[4] = membranes, [125I]-Iodocyanopindolol, read-out: β1 bind pIC50 (converted)

T1 sequence (P07550 whole entry): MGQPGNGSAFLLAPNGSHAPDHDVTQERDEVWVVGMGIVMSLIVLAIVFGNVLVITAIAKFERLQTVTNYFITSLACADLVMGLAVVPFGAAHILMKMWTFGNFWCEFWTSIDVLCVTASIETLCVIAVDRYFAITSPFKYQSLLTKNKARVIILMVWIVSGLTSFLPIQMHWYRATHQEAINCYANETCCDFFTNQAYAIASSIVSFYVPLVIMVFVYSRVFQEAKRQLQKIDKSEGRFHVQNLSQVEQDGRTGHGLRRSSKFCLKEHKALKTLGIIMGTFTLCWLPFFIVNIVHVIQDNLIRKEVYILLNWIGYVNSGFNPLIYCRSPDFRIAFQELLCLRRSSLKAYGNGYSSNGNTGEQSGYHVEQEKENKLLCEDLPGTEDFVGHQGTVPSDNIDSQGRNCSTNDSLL
T2 sequence (P14416 1-414 isoform P14416-2): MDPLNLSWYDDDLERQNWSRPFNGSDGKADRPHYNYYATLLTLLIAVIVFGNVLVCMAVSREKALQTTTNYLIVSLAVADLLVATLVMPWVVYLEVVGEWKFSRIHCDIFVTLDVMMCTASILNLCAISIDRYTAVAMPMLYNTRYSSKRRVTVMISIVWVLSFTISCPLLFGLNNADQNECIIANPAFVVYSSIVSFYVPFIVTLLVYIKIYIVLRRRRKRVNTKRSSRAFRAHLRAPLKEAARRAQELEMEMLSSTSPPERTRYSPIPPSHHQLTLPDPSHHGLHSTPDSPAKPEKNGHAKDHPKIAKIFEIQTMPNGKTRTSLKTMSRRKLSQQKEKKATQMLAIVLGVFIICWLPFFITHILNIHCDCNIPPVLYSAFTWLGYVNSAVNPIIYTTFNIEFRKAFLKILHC
T4 sequence (P08588 whole entry): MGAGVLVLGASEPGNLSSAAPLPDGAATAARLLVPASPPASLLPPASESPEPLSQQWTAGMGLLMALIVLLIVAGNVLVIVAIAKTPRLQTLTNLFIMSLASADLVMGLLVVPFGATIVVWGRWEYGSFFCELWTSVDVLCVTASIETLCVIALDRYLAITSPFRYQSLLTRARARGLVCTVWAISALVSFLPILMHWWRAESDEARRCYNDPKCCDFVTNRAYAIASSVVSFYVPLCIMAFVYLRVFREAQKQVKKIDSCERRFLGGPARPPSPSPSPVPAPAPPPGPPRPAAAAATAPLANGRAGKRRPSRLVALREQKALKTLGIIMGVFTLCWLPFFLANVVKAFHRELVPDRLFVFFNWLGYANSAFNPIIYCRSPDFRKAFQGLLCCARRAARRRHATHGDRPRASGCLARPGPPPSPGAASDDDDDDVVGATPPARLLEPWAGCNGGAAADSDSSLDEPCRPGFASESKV

Row | Structure (SMILES) | EC50 (Adrenergic β2) | β2 Int Act (Adrenergic β2) | IC50 [1] | IC50 [2] | IC50 [3, 4] | IC50 [3]
1 | CC(CNCCCSCCNC[C@H](O)c1ccc(O)c2[nH]c(=O)sc12)c1ccccc1 (mixture of isomers) [Example 44, (+/−)-7-[(1R)-2-({2-[(3-{[2-(phenyl)propyl]amino}propyl)thio]ethyl}amino)-1-hydroxyethyl]-4-hydroxy-1,3-benzothiazol-2(3H)-one dihydrochloride] | 0.631 nM | 0.8 | 12600 nM | 398 nM | 79.4 nM | –
2 | N[C@@H](COCCCSCCNC[C@H](O)c1ccc(O)c2[nH]c(=O)sc12)c1ccccc1 [Example 24, 7-((1R)-2-{[2-({3-[(2R)-2-Amino-2-phenylethoxy]propyl}thio)ethyl]amino}-1-hydroxyethyl)-4-hydroxy-1,3-benzothiazol-2(3H)-one] | 0.398 nM | 0.8 | 631 nM | 158 nM | 79.4 nM | –
3 | C[C@@H](CNCCSCCCNC[C@H](O)c1ccc(O)c2[nH]c(=O)sc12)c1ccccc1 [Example 27, 4-Hydroxy-7-[(1R)-1-hydroxy-2-({3-[(2-{[(2R)-2-phenylpropyl]amino}ethyl)thio]propyl}amino)ethyl]-1,3-benzothiazol-2(3H)-one] | 1 nM | 1 | 1000 nM | 126 nM | 63.1 nM | –
4 | C[C@H](CNCCSCCCNC[C@H](O)c1ccc(O)c2[nH]c(=O)sc12)c1ccccc1 [Example 29, 4-Hydroxy-7-[(1R)-1-hydroxy-2-({3-[(2-{[(2S)-2-phenylpropyl]amino}ethyl)thio]propyl}amino)ethyl]-1,3-benzothiazol-2(3H)-one] | 0.316 nM | 0.9 | 3980 nM | 100 nM | 25.1 nM | –
5 | O=c1[nH]c2c(O)ccc([C@@H](O)CNCCCSCCNCCc3ccccc3Cl)c2s1 [Example 31, 7-[(1R)-2-({3-[(2-{[2-(2-Chlorophenyl)ethyl]amino}ethyl)thio]propyl}amino)-1-hydroxyethyl]-4-hydroxy-1,3-benzothiazol-2(3H)-one] | 0.398 nM | 0.8 | 1580 nM | 12.6 nM | 39.8 nM | –
6 | O=c1[nH]c2c(O)ccc([C@@H](O)CNCCSCCCNCCc3cccc(Cl)c3Cl)c2s1 [Example 38, 7-[(1R)-2-({2-[(3-{[2-(2,3-Dichlorophenyl)ethyl]amino}propyl)thio]ethyl}amino)-1-hydroxyethyl]-4-hydroxy-1,3-benzothiazol-2(3H)-one dihydrochloride] | 1.58 nM | 0.9 | 398 nM | 158 nM | – | –
7 | O=c1[nH]c2c(O)ccc([C@@H](O)CNCCS(=O)(=O)CCCNCCc3cccc(Cl)c3)c2s1 [Example 42, 7-[(1R)-2-({2-[(3-{[2-(3-Chlorophenyl)ethyl]amino}propyl)sulfonyl]ethyl}amino)-1-hydroxyethyl]-4-hydroxy-1,3-benzothiazol-2(3H)-one dihydrochloride] | – | 1 | 10000 nM | 126 nM | – | 794 nM
8 | C[C@@H](CNCCCSCCNC[C@H](O)c1ccc(O)c2[nH]c(=O)sc12)c1ccccc1 [Example 46, (R)-(+)-7-[(1R)-2-({2-[(3-{[2-(phenyl)propyl]amino}propyl)thio]ethyl}amino)-1-hydroxyethyl]-4-hydroxy-1,3-benzothiazol-2(3H)-one dihydrochloride] | 0.631 nM | 0.8 | 1260 nM | 251 nM | 79.4 nM | –
9 | C[C@H](CNCCCSCCNC[C@H](O)c1ccc(O)c2[nH]c(=O)sc12)c1ccccc1 [Example 48, (S)-(−)-7-[(1R)-2-({2-[(3-{[2-(phenyl)propyl]amino}propyl)thio]ethyl}amino)-1-hydroxyethyl]-4-hydroxy-1,3-benzothiazol-2(3H)-one dihydrochloride] | 1.26 nM | 0.9 | 3980 nM | 1580 nM | 158 nM | –
